Test results published in PubChem BioAssay AID330 (DTP/NCI, 2004).
Toxic doses and inconclusive results are not listed.

System: P388 leukemia ip, CD2F1 mice, survival T/C
Experiment: NCI In Vivo Anticancer Drug Screen. Data for tumor model P388 Leukemia (intraperitoneal) in CD2F1 (CDF1) mice
Details: endpoint: median survival time, higher = longer survival
How it was run: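 Mice carrying the transplanted tumor received test compound or vehicle. Survival was recorded in each group, and the value is the treated-group measurement divided by that of the vehicle-treated control group.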

[1] = dose: 50.0 mg/kg/injection, schedule: Q01DX009 (ip), vehicle: saline with Tween-80
[2] = dose: 100.0 mg/kg/injection, schedule: Q01DX009 (ip), vehicle: saline with Tween-80
[3] = dose: 200.0 mg/kg/injection, schedule: Q01DX009 (ip), vehicle: saline with Tween-80
[4] = dose: 50.0 mg/kg/injection, schedule: Q01DX009 (ip), vehicle: saline
[5] = dose: 100.0 mg/kg/injection, schedule: Q01DX009 (ip), vehicle: saline
[6] = dose: 25.0 mg/kg/injection, schedule: Q01DX009 (ip), vehicle: distilled water + Tween-80

For `O=C1c2ccccc2CC1CN1CCCCC1` (configuration not stated), the T/C (dose: 6.25 mg/kg/injection, schedule: Q04DX002 (ip), vehicle: saline) was 108 % of control, the T/C (dose: 12.5 mg/kg/injection, schedule: Q04DX002 (ip), vehicle: saline) was 100 % of control and the T/C (dose: 25.0 mg/kg/injection, schedule: Q04DX002 (ip), vehicle: saline) was 100 % of control.

For `Nc1cc(S(N)(=O)=O)ccc1SSc1ccc(S(N)(=O)=O)cc1N`, the T/C (dose: 50.0 mg/kg/injection, schedule: Q01DX009 (ip), vehicle: Klucel (hydroxypropylcellulose) (HPC)) was 94 % of control, the T/C [1] was 105 % of control and the T/C (dose: 100.0 mg/kg/injection, schedule: Q01DX009 (ip), vehicle: Klucel (hydroxypropylcellulose) (HPC)) was 112 % of control. The T/C [2] was 109 % of control, the T/C (dose: 200.0 mg/kg/injection, schedule: Q01DX009 (ip), vehicle: Klucel (hydroxypropylcellulose) (HPC)) was 112 % of control and the T/C [3] was 110 % of control. The T/C (dose: 400.0 mg/kg/injection, schedule: Q01DX009 (ip), vehicle: Klucel (hydroxypropylcellulose) (HPC)) was 121 % of control and the T/C (dose: 400.0 mg/kg/injection, schedule: Q01DX009 (ip), vehicle: saline with Tween-80) was 117 % of control.

In the case of `C=C(Cl)CN(CC)CCO`, the T/C (dose: 25.0 mg/kg/injection, schedule: Q01DX009 (ip), vehicle: saline sonified) is reported as 100 % of control, the T/C (dose: 50.0 mg/kg/injection, schedule: Q01DX009 (ip), vehicle: saline sonified) is reported as 100 % of control and the T/C (dose: 100.0 mg/kg/injection, schedule: Q01DX009 (ip), vehicle: saline sonified) is reported as 100 % of control.

For `ClCc1nnc2cccc(Cl)n12`, the T/C (dose: 100.0 mg/kg/injection, schedule: Q01DX001 (ip), vehicle: Klucel (hydroxypropylcellulose) (HPC)) was 102 % of control, the T/C (dose: 200.0 mg/kg/injection, schedule: Q01DX001 (ip), vehicle: Klucel (hydroxypropylcellulose) (HPC)) was 96 % of control and the T/C (dose: 400.0 mg/kg/injection, schedule: Q01DX001 (ip), vehicle: Klucel (hydroxypropylcellulose) (HPC)) was 99 % of control.

`CN1c2ccccc2C(C)(C)C12C=Cc1cc(O)ccc1O2` (configuration not stated) was tested, and the T/C [4] was 93 % of control, the T/C [5] was 96 % of control and the T/C (dose: 200.0 mg/kg/injection, schedule: Q01DX009 (ip), vehicle: saline) was 113 % of control.

`OCC1OC(n2cnc3c(NCc4ccco4)ncnc32)C(O)C1O` (configuration not stated) was tested, and the T/C [1] was 111 % of control, the T/C [2] was 93 % of control and the T/C [3] was 118 % of control.

`O=C(O)Cc1cc(Br)c(O)c(Br)c1` was tested, and the T/C (dose: 12.5 mg/kg/injection, schedule: Q01DX009 (ip), vehicle: distilled water + Tween-80) was 107 % of control, the T/C [6] was 107 % of control and the T/C (dose: 50.0 mg/kg/injection, schedule: Q01DX009 (ip), vehicle: distilled water + Tween-80) was 98 % of control. The T/C (dose: 100.0 mg/kg/injection, schedule: Q01DX009 (ip), vehicle: distilled water + Tween-80) was 98 % of control and the T/C (dose: 200.0 mg/kg/injection, schedule: Q01DX009 (ip), vehicle: distilled water + Tween-80) was 100 % of control.

`CC(=O)OCC1OC(N2C(=O)c3ccccc3S2(=O)=O)C(OC(C)=O)C(OC(C)=O)C1OC(C)=O` (configuration not stated) was tested, and the T/C (dose: 100.0 mg/kg/injection, schedule: Q04DX002 (ip), vehicle: saline with Tween-80) was 100 % of control, the T/C (dose: 200.0 mg/kg/injection, schedule: Q04DX002 (ip), vehicle: saline with Tween-80) was 91 % of control and the T/C (dose: 400.0 mg/kg/injection, schedule: Q04DX002 (ip), vehicle: saline with Tween-80) was 96 % of control.

In the case of `CCCCCCC1CC2CCCCN2O1` (configuration not stated), the T/C (dose: 40.0 mg/kg/injection, schedule: Q01DX009 (ip), vehicle: Klucel (hydroxypropylcellulose) (HPC)) is reported as 113 % of control, the T/C (dose: 80.0 mg/kg/injection, schedule: Q01DX009 (ip), vehicle: Klucel (hydroxypropylcellulose) (HPC)) is reported as 107 % of control and the T/C (dose: 160.0 mg/kg/injection, schedule: Q01DX009 (ip), vehicle: Klucel (hydroxypropylcellulose) (HPC)) is reported as 119 % of control.

For `COc1ccc(C2CC(=O)N(c3ncccc3C)C(=O)C2)cc1`, the T/C (dose: 100.0 mg/kg/injection, schedule: Q04DX003 (ip), vehicle: saline) was 93 % of control, the T/C (dose: 200.0 mg/kg/injection, schedule: Q04DX003 (ip), vehicle: saline) was 100 % of control and the T/C (dose: 400.0 mg/kg/injection, schedule: Q04DX003 (ip), vehicle: saline) was 102 % of control.

`CC([NH-])C(=O)O.[Cl][Pt][Cl]` (configuration not stated) was tested, and the T/C (dose: 12.5 mg/kg/injection, schedule: Q01DX009 (ip), vehicle: saline) was 106 % of control, the T/C [6] was 154 % of control and the T/C (dose: 25.0 mg/kg/injection, schedule: Q01DX009 (ip), vehicle: saline) was 113 % of control. For the same compound, the T/C [4] was 123 % of control and the T/C [5] was 123 % of control.
